Assays:
[1] = tested on: SK-N-AS (normal MYCN expression); settings: 1 μM or 10 μM; 48, 72 and 96 hours
Experimental: (§1) Cyclopamine, a known natural inhibitor of SHH, was administered to SK-N-AS and IMR-32, to assess the impact of SHH inhibition on cell viability of neuroblastoma cells with normal and amplified MYCN expression, respectively. Cyclopamine was administered to the SK-N-AS and IMR-32 in 1 μM or 10 μM doses, and the growth inhibition was assayed at 48, 72 and 96 hours.

[2] = tested on: IMR-32 (amplified MYCN expression); settings: 1 μM or 10 μM; 48, 72 and 96 hours; compared to SK-N-AS
Experimental: as §1

[3] = tested on: WNT signaling (β-catenin reporter) in Tet-21N neuroblastoma cells; assay: Integrated WNT reporter in Tet-21N neuroblastoma cells; type: cell-based; settings: MYCN-on cells
Experimental: (§2) CSNK1ε has been implicated as a positive regulator of WNT signaling (Sakanaka, C., “Phosphorylation and Regulation of Beta-Catenin by Casein Kinase I Epsilon,” J Biochem 132:697-703, 2002). To determine the functional status of WNT activity in neuroblastoma cells with or without amplified MYCN expression, a WNT dual reporter system, employing both consensus (TOP) and mutant (FOP) TCF binding sites was assayed in neuroblastoma cell lines SK-N-AS (MYCN not amplified), SH-Sy5Y (MYCN not amplified), IMR-32 (MYCN amplified and overexpressed), and SK-N-BE2 (MYCN amplified and overexpressed), as described in (Biechele, T. L., et al., “Transcription-Based Reporters of Wnt/beta-Catenin Signaling,” Cold Spring Harb Protoc 2009, pdb prot5223).
A potential direct connection of WNT with MYCN expression was explored utilizing neuroblastoma cells expressing an inducible Tet-MYCN gene. Tet-21N neuroblastoma cells (normal MYCN expression) carrying a Tet-off-MYCN gene, were treated with or without Dox (a tetracycline compound), as described supra. […] Further, the WNT activity was assayed through the detectable activity of an integrated WNT reporter.

[4] = tested on: HFF with cMYC induced, TOV112D, COLO720E (amplified c-MYC expressing); assay: Cell viability with increasing IC261, cells with amplified c-MYC; type: cell-based, human; settings: IC261 at 0.5 log μM and above
Experimental: (§3) The effect of CSNK1ε on the cell viability of ovarian cancer lines was investigated in vitro. First, HFF (non-cancer primary cells) with control vector, RMG-1 (normal c-MYC expressing), CaOV3 (normal c-MYC expressing), HFF with cMYC induced (amplified c-MYC expressing), TOV112D (amplified c-MYC expressing), and COLO720E (amplified c-MYC expressing) were exposed to increasing concentrations of IC261. Cell viability was assessed as described above.

[5] = tested on: PEO4 (cisplatin-resistant derivative) ovarian cancer cells; assay: Cell viability with cisplatin in presence or absence of IC261; type: cell-based, human; settings: 1 μM IC-261 with low doses of cisplatin
Source text: (§4) Cisplatin, or cis-diamminedichloroplatinum(II) (CDDP), is a chemotherapy drug commonly used to treat numerous types of cancers including ovarian cancer. Cisplatin contains platinum complexes that crosslink DNA, ultimately triggering apoptosis of the cell. However, many treated cancer relapse and display a resistance to cisplatin. Considering the ability of CSNK1ε inhibitors to reduce viability of cells with amplified c-MYC expression, a similar role of CSNK1ε inhibitors on cisplatin resistant cancer cells was investigated. A2780 and A2780-CP70 (resistant derivative), PEO1 and PEO4 (resistant derivative of PE01) ovarian cancer cell lines were cultured in the presence of increasing doses of cisplatin and the presence or absence of IC261. Cell viability was monitored as described above. […] It is noted that the c-MYC expression level in A2780 cells is yet undetermined.

[6] = tested on: PEO1 ovarian cancer cells; assay: as above; type: cell-based; settings: 1 μM IC-261 with low doses of cisplatin
Source text: as §4

[7] = tested on: A2780 ovarian cancer cells; assay: as above; type: cell-based; settings: 1 μM IC-261 with increasing doses of cisplatin
Source text: as §4

[8] = tested on: A2780-CP70 (cisplatin-resistant) ovarian cancer cells; assay: as above; type: cell-based; settings: 1 μM IC-261 with increasing doses of cisplatin
Source text: as §4

[9] = tested on: SK-N-AS (normal MYCN expression) cells; assay: Microscopic analysis of neuroblastoma cells after IC261; type: cell-based; settings: 48 hours; 0.33 μM or 3.3 μM IC261
Experimental: (§5) Microscopic analysis of the SN-N-AS (normal MYCN expression) and IMR-32 (amplified MYCN expression) neuroblastoma cell lines, further supporting the differential effect of the CSNK1ε inhibitor, IC261, on the health and proliferation of neuroblastoma cells overexpressing MYCN. Referring to FIG. 5, top line, micrographs are provided illustrating SK-N-AS (normal MYCN expression) cells in culture before and 48 hours after culture with DMSO, 0.33 μM, or 3.3 μM IC261. Referring to FIG. 5, bottom line, micrographs are provided illustrating IMR-32 cells (amplified MYCN expression) in culture before and 48 hours after culture with DMSO, 0.1 μM, or 1.0 μM IC261.

[10] = tested on: IMR-32 cells (amplified MYCN expression); assay: as above; type: cell-based; settings: 48 hours; 0.1 μM or 1.0 μM IC261
Experimental: as §5

[11] = tested on: IMR-32 neuroblastoma cells (amplified MYCN expression); assay: Cell viability of neuroblastoma cells treated with IC261; type: cell-based
Experimental: Lentiviral vectors expressing Dox-inducible shRNAs targeting CSNK1ε were transduced into SK-N-AS, a neuroblastoma line with normal MYCN expression, and SK-N-BE2 and IMR-32, neuroblastoma lines with amplified MYCN expression. Expression of the shRNAs were induced with Dox and cell viability was assayed after four days using the CellTiter Glo assay (Promega, Madison, Wis.).
To evaluate the therapeutic potential of CSNK1ε kinase inhibitors for the inhibition of tumor cell growth, the kinase function of CSNK1ε polypeptide was blocked with IC261, a small molecule inhibitor of CSNK1ε and d kinase activity (Mashhoon, N., et al., “Crystal Structure of a Conformation-Selective Casein Kinase-1 Inhibitor,” J Biol Chem 275:20052-20060, 2000). Specifically, the sensitivity of MYC overexpressing cells to IC261 relative to control, was determined in vitro utilizing the neuroblastoma cell lines SK-N-AS (normal MYCN expression) and IMR-32 (amplified MYCN expression). Cultured cells were treated with a range of concentrations of IC261 and percent of cell viability was recorded over four days as described above. […] The difference in cell viability was significant at the 1, 5 and 10 μM concentrations.

[12] = Cell viability with increasing IC261, normal c-MYC expressing cells; type: cell-based; settings: human; IC261 at 0.5 log μM and above
Experimental: as §3

[13] = tested on: IMR-32 (amplified MYCN expression) xenograft blastoma tumors; assay: IMR-32 neuroblastoma xenograft in NOD/SCID mice; type: in vivo
Experimental: To evaluate the therapeutic potential of CSNK1ε kinase inhibitors, IC261, a small molecule inhibitor of CSNK1ε and d kinase activity (Mashhoon, N., et al., “Crystal Structure of a Conformation-Selective Casein Kinase-1 Inhibitor,” J Biol Chem 275:20052-20060, 2000) was administered to mice with established IMR-32 (amplified MYCN expression) xenograft blastoma tumors. Specifically, 10 NOD/SCID mice were injected with 1×10^7 IMR-32 blastoma cells. The tumors were allowed to establish for 6 weeks. The mice were randomized into control and IC261 treatment groups. At the start of treatment, the average tumor size for the control mice was 98.8±42.5 mm^3, whereas the average tumor size for the IC261 treatment group was 121.9±46.9 mm^3. The groups were subcutaneously injected once daily for seven days with 20.5 mg/kg of IC261 or DMSO in 200 μl. During treatment, the tumor size was monitored. […] However, at day three the average tumor volume of the IC261-treated mice was reduced, a trend that continued throughout the remaining treatment schedule, ultimately to a volume of about 100 mm^3. In contrast, the tumor volume of the DMSO-treated mice continued to increase to a volume of about 350 mm^3. Histological sections of tumors from each group were prepared after the 8th day of IC261 treatment. The tumor sections were subjected to hematoxylin and eosin (H-E) stain, TUNEL stain, and BrdU staining to ascertain the cell structure, and frequencies of cell apoptosis, and cell proliferation within the tumors. […] The images shown in FIG. 7D are representative of at least 10 fields viewed over two stained sections per animal.

[14] = tested on: TOV112D/Luc human ovarian cancer cells; assay: Peritoneal carcinomatosis model mice (TOV112D/Luc intraperitoneal xenograft); type: in vivo
Experimental: The effect of CSNK1ε on the cell viability of ovarian cancer cells was then investigated in vivo. Peritoneal carcinomatosis model mice were generated by the intraperitoneal injection of TOV112D/Luc cells. After one week, the mice were randomized into control and experimental groups, which then received daily injections of IC261 or DMSO carrier for three weeks. Weekly Luc imaging was performed for each mouse at the termination of each week of the experiment to monitor the relative viability of cancer cells that have established in the mice. […] As illustrated in the survival graph in FIG. 11B, the DMSO group and IC261 treatment groups diverged in percent survival starting at day 30 when the DMSO group began to experience drastic mortality.

[15] = tested on: TOV112D cells (amplified c-MYC expression); assay: Cell cycle analysis (Propidium Iodide staining, FACS); type: cell-based, human; settings: 1 μM IC261; 16 and 24 hours
Experimental: (§6) Ovarian cancer cell lines with normal (i.e., low) and amplified expression of c-MYC were assessed for the impact of the CSNK1ε inhibitor IC261 on the progression of the cell cycle. CaOV3 cells (normal c-MYC expression) and TOV112D cells (amplified c-MYC expression) were cultured in 1 μM IC261. The cells were assessed for the state of the cell cycle, namely G1, S-phase, and G2, at time points before and 16 and 24 hours after contact with IC261 by Propidium Iodide staining followed by FACS analysis. […] However, the levels were lower for the cells with amplified c-MYC expression. […] This trend was not observed for the cancer cells with normal c-MYC expression.

[16] = tested on: CaOV3 cells (normal c-MYC expression); assay: as above; type: cell-based, human; settings: 1 μM IC261; 16 and 24 hours
Experimental: as §6

[17] = tested on: WNT signaling (β-catenin activity) in COLO720E ovarian cells; assay: Relative β-catenin activity (WNT signaling) in COLO720E ovarian cells; type: cell-based, human; settings: higher doses of IC261 (0, 0.67, 3.3, 6.67 μM tested)
Experimental: as §2
The impact of stable knock-down of CSNK1ε was assessed for the expression for WNT signal function. To confirm the efficacy of the stable knockdown technique in ovarian cells, Dox-inducible lentivirus constructs encoding shRNAs targeting CSNK1ε were transduced into COLO720E ovarian cells. […] Next, to assess the WNT signaling activity, relative β-catenin activity was assayed as described, supra, for COLO720E ovarian cells transduced with the shRNA encoding lentivirus targeting CSNK1ε. […] A similar effect on relative β-catenin activity was observed upon administration of IC261, the inhibitor of CSNK1ε. […]

SKOV3 = assay: IC261 loss of cell viability, ovarian cancer cell panel; type: cell-based; settings: Homo sapiens, SK-OV-3
Experimental: as §3
(§7) Similar assays were performed with an additional panel of ovarian cancer cells, including IGROV-1, PE01, DOV13, OAW42, TOV21G, and SKOV3. The log of the half maximal effective concentration (log IC50) was calculated to reflect half the concentration of IC261 required to results in complete loss of cell viability.

OAW42 = assay: as above; type: cell-based; settings: Homo sapiens, OAW-42
Experimental: as §3, §7

PE01 = assay: as above; type: cell-based; settings: Homo sapiens
Experimental: as §3, §7

TOV21G = assay: as above; type: cell-based; settings: Homo sapiens
Experimental: as §3, §7

IGROV-1 = assay: as above; type: cell-based; settings: Homo sapiens
Experimental: as §3, §7

DOV13 = assay: as above; type: cell-based; settings: Homo sapiens
Experimental: as §3, §7

Which results are given for `CC1=C2C[C@H]3[C@@H](CC=C4C[C@@H](O)CC[C@@]43C)[C@@H]2CC[C@]12O[C@@H]1C[C@H](C)CN[C@H]1[C@H]2C` [Cyclopamine]?
growth inhibition [1]: Growth inhibition was detected; growth inhibition [2]: more pronounced

Which results are given for `COc1cc(OC)c(/C=C2/C(=O)Nc3ccccc32)c(OC)c1` [IC261]?
WNT reporter (β-catenin signal) [3]: repression of the WNT reporter; relative viability [4]: ≤ 25%; cell viability with low doses of cisplatin [5]: large reduction in cell viability; cell viability with low doses of cisplatin [6]: large reduction in cell viability; response to cisplatin (cell viability) [7]: greatly sensitized; response to cisplatin (cell viability) [8]: greatly sensitized; cell appearance in micrographs [9]: maintained healthy spreading and attachment; cell appearance in micrographs [10]: detached from the plate surface and balled up; percent cell viability, IMR-32 compared to SK-N-AS ([11]; 48 hours, IC261 0.33 μg/ml and higher): lower percent cell viability; difference in cell viability, IMR-32 vs SK-N-AS ([11]; 72 hours): significant difference in cell viability; difference in cell viability, IMR-32 vs SK-N-AS ([11]; 96 hours, higher doses): not statistically significant; viability [12]: ≥ 75%; average tumor volume at end of treatment schedule ([13]; 20.5 mg/kg subcutaneously once daily for seven days): about 100 mm^3; cell proliferation in tumor sections (BrdU stain) vs DMSO control ([13]; after the 8th day of IC261 treatment): drastically reduced indications of cell proliferation; average tumor volume ([13]; day three of treatment, 20.5 mg/kg s.c. daily): reduced; tumor volume vs DMSO-treated mice ([13]; first two days of treatment, 20.5 mg/kg s.c. daily): no significant difference; survival vs DMSO group ([14]; daily injections for three weeks, groups diverged starting at day 30): prolonged the life of the subjects; cancer cell proliferation and viability (Luc imaging) vs DMSO ([14]; daily injections, after two weeks): significantly reduced cancer cell proliferation and viability; difference among treatment groups (Luc imaging) ([14]; week four): much more pronounced; cells in the G2 phase [15]: arrested at the G2 checkpoint; percentage of cells in the G1 phase [15]: drastically reduced; cells in the G2 phase [16]: small and transient ability to cause cell cycle arrest in G2; percentage of cells in the G1 phase [16]: drastically reduced; relative β-catenin activity [17]: reduced by more than two thirds; IC50 (SKOV3): 4.63 µM; IC50 (OAW42): 6.61 µM; IC50 (PE01): 8.8 µM; IC50 (TOV21G): 6.55 µM; IC50 (IGROV-1): 585 µM; IC50 (DOV13): 7.09 µM

Reference: patent US10188630B2, “Methods for identifying and using inhibitors of casein kinase 1 epsilon isoform for inhibiting the growth and/or proliferation of MYC-driven tumor cells” (Fred Hutchinson Cancer Research Center, priority 2010, dated 2019)
